Results from ChEMBL document CHEMBL5579789, “Azafuramidines as potential anticancer Agents: Pro-apoptotic profile and cell cycle arrest” (Bioorg Med Chem Lett, 2024).
Active and inactive are the calls of the source. No cut-off for these calls is given here.

What was measured:
MCF7 [1] = assay: Induction of morphological changes in human MCF7 cells assessed as cell enlargement with vacuolated cytoplasm at IC50 concentration; format: functional, cell-based
U2OS [2] = assay: Induction of morphological changes in human U2OS cells assessed as appearance of degenerative features at IC50 concentration; format: functional, cell-based
U2OS [3] = assay: Induction of morphological changes in human U2OS cells assessed as appearance of vesicular nuclei at IC50 concentration; format: functional, cell-based
MCF7 [4] = assay: Induction of morphological changes in human MCF7 cells assessed as cell detachment at IC50 concentration; format: functional, cell-based
HepG2 [5] = assay: Inhibition of cell migration in human HepG2 cells assessed as wound confluence at IC50 concentration incubated for 10 hrs by scratch wound assay (reference value: 32.01 +/- 0.67 %); format: functional; design: scale not given: the % may be the effect or the level left
HepG2 [6] = assay: Induction of morphological changes in human HepG2 cells assessed as appearance of dense nuclei at IC50 concentration; format: functional, cell-based
MCF7 [7] = assay: Induction of morphological changes in human MCF7 cells assessed as appearance of hyper chromatic nuclei at IC50 concentration; format: functional, cell-based
MCF7 [8] = assay: Antiproliferative activity against human MCF7 cells assessed as inhibition of cell growth; format: functional, cell-based
[9] = Cytotoxicity against human WI-38 cells assessed as inhibition of cell growth; format: toxicity, cell-based
U2OS [10] = assay: Induction of morphological changes in human U2OS cells assessed as cell enlargement with vacuolated cytoplasm at IC50 concentration; format: functional, cell-based
MCF7 [11] = assay: Induction of morphological changes in human MCF7 cells assessed as appearance of vesicular nuclei at IC50 concentration; format: functional, cell-based
HepG2 [12] = assay: Inhibition of cell migration in human HepG2 cells assessed as wound confluence at IC50 concentration incubated for 24 hrs by scratch wound assay (reference value: 98.01 +/- 0.14 %); format: functional; design: scale not given: the % may be the effect or the level left
HepG2 [13] = assay: Induction of apoptosis in human HepG2 cells assessed as late apoptotic cells at IC50 concentration by annexin V-FITC/7-AAD staining based flow cytometric analysis (reference value: 0.3 %); format: functional
HepG2 [14] = assay: Induction of apoptosis in human HepG2 cells assessed as fold increase in p53 level by Western blot analysis; format: functional
U2OS [15] = assay: Antiproliferative activity against human U2OS cells assessed as inhibition of cell growth; format: functional, cell-based
HepG2 [16] = assay: Antiproliferative activity against human HepG2 cells assessed as change in cell viability at IC50 concentration; format: functional, cell-based
HepG2 [17] = assay: Induction of apoptosis in human HepG2 cells assessed as viable cells at IC50 concentration by annexin V-FITC/7-AAD staining based flow cytometric analysis (reference value: 99.7 %); format: functional
HepG2 [18] = assay: Induction of apoptosis in human HepG2 cells assessed as late apoptotic cells at IC50 concentration by annexin V-FITC/7-AAD staining based flow cytometric analysis (reference value: 0.0 %); format: functional
MCF7 [19] = assay: Induction of morphological changes in human MCF7 cells assessed as appearance of degenerative features at IC50 concentration; format: functional, cell-based
HepG2 [20] = assay: Induction of apoptosis in human HepG2 cells assessed as fold increase in p21 level by Western blot analysis; format: functional
HepG2 [21] = assay: Induction of morphological changes in human HepG2 cells assessed as cell enlargement with vacuolated cytoplasm at IC50 concentration; format: functional, cell-based
U2OS [22] = assay: Induction of morphological changes in human U2OS cells assessed as cell detachment at IC50 concentration; format: functional, cell-based
MCF7 [23] = assay: Antiproliferative activity against human MCF7 cells assessed as change in cell viability at IC50 concentration; format: functional, cell-based
U2OS [24] = assay: Induction of morphological changes in human U2OS cells assessed as appearance of hyper chromatic nuclei at IC50 concentration; format: functional, cell-based
HepG2 [25] = assay: Cell cycle arrest in human HepG2 cells assessed as accumulation of cells at G2/M phase at IC50 concentration incubated for 48 hrs by PI staining based flow cytometric analysis (reference value: 19.4 %); format: functional
HepG2 [26] = assay: Induction of morphological changes in human HepG2 cells assessed as appearance of hyper chromatic nuclei at IC50 concentration; format: functional, cell-based
HepG2 [27] = assay: Inhibition of cell migration in human HepG2 cells assessed as wound confluence at IC50 concentration incubated for 4 hrs by scratch wound assay (reference value: 19.38 +/- 0.12 %); format: functional; design: scale not given: the % may be the effect or the level left
U2OS [28] = assay: Induction of morphological changes in human U2OS cells assessed as appearance of dense nuclei at IC50 concentration; format: functional, cell-based
HepG2 [29] = assay: Antiproliferative activity against human HepG2 cells assessed as inhibition of cell growth; format: functional, cell-based
HepG2 [30] = assay: Induction of apoptosis in human HepG2 cells assessed as early apoptotic cells at IC50 concentration by annexin V-FITC/7-AAD staining based flow cytometric analysis (reference value: 0.0 %); format: functional
HepG2 [31] = assay: Induction of morphological changes in human HepG2 cells assessed as appearance of degenerative features at IC50 concentration; format: functional, cell-based
HepG2 [32] = assay: Cell cycle arrest in human HepG2 cells assessed as accumulation of cells at S phase at IC50 concentration incubated for 48 hrs by PI staining based flow cytometric analysis (reference value: 21.0 %); format: functional
HepG2 [33] = assay: Induction of apoptosis in human HepG2 cells assessed as fold increase in p27 level by Western blot analysis; format: functional
HepG2 [34] = assay: Induction of morphological changes in human HepG2 cells assessed as cell detachment at IC50 concentration; format: functional, cell-based
HepG2 [35] = assay: Induction of apoptosis in human HepG2 cells assessed as apoptotic cells at IC50 concentration by annexin V-FITC/7-AAD staining based flow cytometric analysis (reference value: 0.28 %); format: functional
HepG2 [36] = assay: Induction of morphological changes in human HepG2 cells assessed as appearance of vesicular nuclei at IC50 concentration; format: functional, cell-based
HepG2 [37] = assay: Cell cycle arrest in human HepG2 cells assessed as accumulation of cells at G0/G1 phase at IC50 concentration incubated for 48 hrs by PI staining based flow cytometric analysis (reference value: 58.2 %); format: functional
U2OS [38] = assay: Antiproliferative activity against human U2OS cells assessed as change in cell viability at IC50 concentration; format: functional, cell-based
MCF7 [39] = assay: Induction of morphological changes in human MCF7 cells assessed as appearance of dense nuclei at IC50 concentration; format: functional, cell-based
[40] = Inhibition of cell migration in human […] cells at IC50 concentration incubated for 24 hrs relative to control; format: functional

| IC50 (MCF7 [8]) | IC50 (U2OS [15]) | Structure (SMILES) | Activity (MCF7 [1]) | Activity (U2OS [2]) | Activity (U2OS [3]) | Activity (MCF7 [4]) | Activity (HepG2 [5]) | Activity (HepG2 [6]) | Activity (MCF7 [7]) | IC50 [9] | Activity (U2OS [10]) | Activity (MCF7 [11]) | Activity (HepG2 [12]) | Activity (HepG2 [13]) | fold change (FC) (HepG2 [14]) | Activity (HepG2 [16]) | Activity (HepG2 [17]) | Activity (HepG2 [18]) | Activity (MCF7 [19]) | Activity (HepG2 [21]) | further results |
| --- | --- | --- | --- | --- | --- | --- | --- | --- | --- | --- | --- | --- | --- | --- | --- | --- | --- | --- | --- | --- | --- |
| 1640 nM | 1730 nM | N=C(N)c1ccc(-c2ccc(-c3ccc(Cl)cc3)o2)nc1 | Active | Active | Active | Active | 33.72% | Active | Active | 77000 nM | Active | Active | 46.65% | 16.9% | ~2.5 | Active | 28.7% | 0.4% | Active | Active | fold change (FC) (HepG2 [20]): ~3; Activity (U2OS [22]): Active; Activity (MCF7 [23]): Active; Activity (U2OS [24]): Active; Activity (HepG2 [25]): 47.1%; Activity (HepG2 [26]): Active; Activity (HepG2 [27]): 14.19%; Activity (U2OS [28]): Active; IC50 (HepG2 [29]): 1550 nM; Activity (HepG2 [30]): 54%; Activity (HepG2 [31]): Active; Activity (HepG2 [32]): 43.6%; fold change (FC) (HepG2 [33]): ~2.3; Activity (HepG2 [34]): Active; Activity (HepG2 [35]): 70.5%; Activity (HepG2 [36]): Active; Activity (HepG2 [37]): 9.2%; Activity (U2OS [38]): Active; Activity (MCF7 [39]): Active; inhibition (INH) [40]: ~55% |
| 1600 nM | 1720 nM | N=C(N)c1ccc(-c2ccc(-c3ccc(F)cc3)o2)nc1 | Active | Active | Active | Active | 32.89% | Active | Active | 89000 nM | Active | Active | 42.09% | 10.6% | ~2.5 | Active | 41.9% | 0.1% | Active | Active | fold change (FC) (HepG2 [20]): ~5; Activity (U2OS [22]): Active; Activity (MCF7 [23]): Active; Activity (U2OS [24]): Active; Activity (HepG2 [25]): 41.4%; Activity (HepG2 [26]): Active; Activity (HepG2 [27]): 14.07%; Activity (U2OS [28]): Active; IC50 (HepG2 [29]): 1060 nM; Activity (HepG2 [30]): 47.4%; Activity (HepG2 [31]): Active; Activity (HepG2 [32]): 39.1%; fold change (FC) (HepG2 [33]): ~3.1; Activity (HepG2 [34]): Active; Activity (HepG2 [35]): 59.3%; Activity (HepG2 [36]): Active; Activity (HepG2 [37]): 19.4%; Activity (U2OS [38]): Active; Activity (MCF7 [39]): Active; inhibition (INH) [40]: ~55% |
| 1690 nM | 1810 nM | N=C(N)c1ccc(-c2ccc(-c3cc(Cl)cc(Cl)c3)o2)nc1 | Active | Active | Active | Active | 47.49% | Active | Active | 101000 nM | Active | Active | 64.83% | 14.3% | ~2.5 | Active | 31.5% | 0.1% | Active | Active | Activity (U2OS [22]): Active; Activity (MCF7 [23]): Active; Activity (U2OS [24]): Active; Activity (HepG2 [25]): 20.6%; Activity (HepG2 [26]): Active; Activity (HepG2 [27]): 14.4%; Activity (U2OS [28]): Active; IC50 (HepG2 [29]): 1870 nM; Activity (HepG2 [30]): 54%; Activity (HepG2 [31]): Active; Activity (HepG2 [32]): 19.1%; Activity (HepG2 [34]): Active; Activity (HepG2 [35]): 66.1%; Activity (HepG2 [36]): Active; Activity (HepG2 [37]): 59.6%; Activity (U2OS [38]): Active; Activity (MCF7 [39]): Active |
